Assays:
Swiss mice = assay: Fat tolerance test (ftt) in mice; type: in vivo; details: 3 mg/kg, p.o.; olive oil load 10 mL/kg 30 min after treatment; AUC0-4h, vehicle group as 100%
Experimental: Swiss mice of age 4-5 weeks and body weight between 25-30 g were selected for study. After fasting for about 16 h, the animals were divided into three groups based on plasma triglyceride level with same mean and variation. Animals were administered with either vehicle [(1% tween 80 in 0.5% carboxy methylcellulose (CMC)]) or with compounds of the present invention (3 mg/kg, p.o.). Compounds of the present invention were prepared as suspension in 0.5% carboxy methylcellulose (CMC) with 1% tween 80. Olive oil (fat) load (10 mL/kg, p.o.) was given, 30 min after the treatment. Blood samples were collected at 1, 2, 3 and 4 h after the fat (olive oil) load. Plasma was separated and triglyceride level was measured using commercially available kits (diasys, Germany). Percentage reduction in area under curve (AUC0-4h) of the test compound was calculated by taking AUC0-4h of the vehicle group as 100%.

hDGAT1 = target: T1, hDGAT1 (Homo sapiens, UniProt O75907); assay: In-vitro DGAT1 assay (14C oleoyl CoA, hDGAT1 microsomes from Sf9 cells); details: for inhibition at 1 µM: read-out: % Inhibition of hDGAT1; for % Inhibition of hDGAT1: at 1 μM
T1 sequence (O75907 1-488): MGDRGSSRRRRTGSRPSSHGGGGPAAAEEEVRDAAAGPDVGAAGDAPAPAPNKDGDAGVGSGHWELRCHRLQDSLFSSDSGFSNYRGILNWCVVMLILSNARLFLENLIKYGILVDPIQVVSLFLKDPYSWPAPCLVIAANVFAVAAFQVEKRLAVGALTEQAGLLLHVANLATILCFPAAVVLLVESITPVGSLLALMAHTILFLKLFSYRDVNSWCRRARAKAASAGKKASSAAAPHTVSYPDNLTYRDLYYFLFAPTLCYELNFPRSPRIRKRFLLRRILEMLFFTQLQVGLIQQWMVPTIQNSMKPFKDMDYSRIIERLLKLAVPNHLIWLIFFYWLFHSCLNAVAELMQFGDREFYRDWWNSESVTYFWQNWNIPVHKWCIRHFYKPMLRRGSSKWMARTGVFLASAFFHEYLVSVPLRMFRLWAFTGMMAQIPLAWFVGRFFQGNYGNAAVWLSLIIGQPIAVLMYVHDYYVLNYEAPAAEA

| Compound | % Reduction (Plasma triglyceride) (Swiss mice) | inhibition at 1 µM (hDGAT1) | % Inhibition of hDGAT1 (hDGAT1) |
| --- | --- | --- | --- |
| CC(C)[C@@H](C(=O)O)N1Cc2ccc(-c3ccc(NC(=O)c4ccc(C(C)(C)C)cc4)cc3)cc2C1=O [Example 116, (S)-2-(6-(4-(4-tert-Butylbenzamido)phenyl)-1-oxoisoindolin-2-yl)-3-methyl butanoic acid] | ++ (>50% Reduction) | > 50% | – |
| CC(C)[C@@H](C(=O)O)N1Cc2ccc(-c3ccc(NC(=O)c4ccc(-c5ccccc5)cc4)cc3)cc2C1=O [Example 120, (S)-2-(6-(4-Biphenyl-4-ylcarboxamidophenyl)-1-oxoisoindolin-2-yl)-3-methyl butanoic acid] | ++ (>50% Reduction) | – | ++ (>50% Inhibition) |
| CCCCCc1ccc(C(=O)Nc2ccc(-c3ccc4c(c3)C(=O)N([C@H](C(=O)O)C(C)C)C4)cc2)cc1 [Example 124, (S)-3-Methyl-2-(1-oxo-6-(4-(4-pentylbenzamido)phenyl)isoindolin-2-yl)butanoic acid] | ++ (>50% Reduction) | > 50% | – |
| CC(C)[C@@H](C(=O)O)N1Cc2ccc(-c3ccc(NC(=O)c4cccc(Oc5ccccc5)c4)cc3)cc2C1=O [Example 148, (S)-3-Methyl-2-(1-oxo-6-(4-(3-phenoxybenzamido)phenyl)isoindolin-2-yl)butanoic acid] | ++ (>50% Reduction) | > 50% | – |
| CC(C)[C@@H](C(=O)O)N1Cc2ccc(-c3ccc(NC(=O)c4ccc(Oc5ccccc5)cc4)cc3)cc2C1=O [Example 150, (S)-3-Methyl-2-(1-oxo-6-(4-(4-phenoxybenzamido)phenyl)isoindolin-2-yl)butanoic acid] | ++ (>50% Reduction) | > 50% | – |
| CCCc1ccc(C(=O)Nc2ccc(-c3ccc4c(c3)C(=O)N([C@H](C(=O)O)C(C)C)C4)cc2)cc1 [Example 170, (S)-3-Methyl-2-(1-oxo-6-(4-(4-propylbenzamido)phenyl)isoindolin-2-yl)butanoic acid] | ++ (>50% Reduction) | > 50% | – |
| CCCCCc1ccc(C(=O)Nc2ccc(-c3ccc4c(c3)C(=O)N([C@H](C(=O)O)C(C)C)C4)nc2)cc1 [Example 406, (S)-3-Methyl-2-(1-oxo-6-(5-(4-pentylbenzamido)pyridin-2-yl)isoindolin-2-yl)butanoic acid] | ++ (>50% Reduction) | > 50% | – |
| CC(C)[C@@H](C(=O)O)N1Cc2ccc(-c3ccc(NC(=O)c4ccc(-c5ccccc5)cc4)cn3)cc2C1=O [Example 408, (S)-2-(6-(5-Biphenyl-4-ylcarboxamidopyridin-2-yl)-1-oxoisoindolin-2-yl)-3-methylbutanoic acid] | ++ (>50% Reduction) | – | ++ (>50% Inhibition) |
| CC(C)[C@@H](C(=O)O)N1Cc2ccc(-c3ccc(NC(=O)c4ccc5ccccc5c4)cn3)cc2C1=O [Example 410, (S)-2-(6-(5-(2-Naphthamido)pyridin-2-yl)-1-oxoisoindolin-2-yl)-3-methylbutanoic acid] | ++ (>50% Reduction) | > 50% | – |
| Cc1oc(-c2ccccc2)nc1C(=O)Nc1ccc(-c2ccc3c(c2)C(=O)N([C@H](C(=O)O)C(C)C)C3)nc1 [Example 655, (S)-3-Methyl-2-(6-(5-(5-methyl-2-phenyloxazole-4-carboxamido)pyridin-2-yl)-1-oxoisoindolin-2-yl)butanoic acid] | – | > 50% | – |
| CC(C)[C@@H](C(=O)O)N1Cc2ccc(-c3ccc(NC(=O)c4nc(-c5ccccc5)oc4C(F)(F)F)cn3)cc2C1=O [Example 657, (S)-3-Methyl-2-(1-oxo-6-(5-(2-phenyl-5-(trifluoromethyl)oxazole-4-carboxamido)pyridin-2-yl)isoindolin-2-yl)butanoic acid] | – | > 50% | – |
| CC(C)[C@@H](C(=O)O)N1Cc2ccc(-c3ccc(NC(=O)Cc4ccccc4)cc3)cc2C1=O [Example 659, (S)-3-Methyl-2-(1-oxo-6-(4-(2-phenylacetamido)phenyl)isoindolin-2-yl)butanoic acid] | – | 10 to 50% | – |
| (S)-2-(5-(4-(3-(2-Fluorophenyl)thioureido)phenyl)-1-oxoisoindolin-2-yl)-3-methylbutanoic acid [Example 257] | – | – | + (10-50% Inhibition) |

— patent US8748426B2, “Inhibitors of diacylglycerol acyl transferase” (Piramal Enterprises Limited, priority 2009, dated 2014)
